Assay results published in PubChem BioAssay (NCI).
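Method: 48-hour compound exposure of cells in 96-well plates, five concentrations, linear interpolation of endpoints. At the TGI there is no net growth.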

Experiments:
Test in all cases: NCI tumour cell line growth inhibition, 48 h
[1] = tested on: NCI-H23 lung
[2] = tested on: HOP-18 NSCLC
[3] = tested on: HOP-92 NSCLC
[4] = tested on: TK-10 renal
[5] = tested on: SR leukemia
[6] = tested on: SN12C renal
[7] = tested on: SF-268 CNS
[8] = tested on: CAKI-1 renal
[9] = tested on: SK-MEL-5 melanoma
[10] = tested on: M19-MEL melanoma
[11] = tested on: SK-MEL-2 melanoma
[12] = tested on: DMS 273 small cell lung
[13] = tested on: SF-295 CNS
[14] = tested on: HCT-15 colon
[15] = tested on: NCI-H226 lung
[16] = tested on: SNB-75 CNS
[17] = tested on: XF 498 CNS
[18] = tested on: DMS 114 small cell lung
[19] = tested on: SF-539 CNS
[20] = tested on: HT29 colon
[21] = tested on: UACC-62 melanoma
[22] = tested on: M14 melanoma
[23] = tested on: A549 NSCLC
[24] = tested on: HCT-116 colon
[25] = tested on: U251 CNS
[26] = tested on: OVCAR-8 ovarian
[27] = tested on: SK-MEL-28 melanoma
[28] = tested on: KM20L2 colon
[29] = tested on: SW-620 colon
[30] = tested on: ACHN renal
[31] = tested on: SK-OV-3 ovarian
[32] = tested on: LOX IMVI melanoma
[33] = tested on: SNB-78 CNS
[34] = tested on: LXFL 529 NSCLC
[35] = tested on: OVCAR-3 ovarian
[36] = tested on: HL-60(TB) leukemia
[37] = tested on: K-562 leukemia
[38] = tested on: CCRF-CEM leukemia
[39] = tested on: UACC-257 melanoma
[40] = tested on: MOLT-4 leukemia
[41] = tested on: NCI-H460 lung
[42] = tested on: OVCAR-4 ovarian
[43] = tested on: HOP-62 NSCLC
[44] = tested on: KM12 colon
[45] = tested on: RPMI-8226 leukemia
[46] = tested on: IGROV1 ovarian
[47] = tested on: 786-0 renal
[48] = tested on: DLD-1 colon
[49] = tested on: OVCAR-5 ovarian
[50] = tested on: NCI-H522 lung
[51] = tested on: COLO 205 colon
[52] = tested on: UO-31 renal
[53] = tested on: SNB-19 CNS
[54] = tested on: MALME-3M melanoma
[55] = tested on: RXF 393 renal
[56] = tested on: HCC-2998 colon
[57] = tested on: RXF-631 renal
[58] = tested on: EKVX NSCLC
[59] = tested on: A498 renal

O=C(c1ccc(Cl)cc1)N(C(=S)N1CCN(c2ccccn2)CC1)C1CCCCC1
TGI [1]: > 100 µM
TGI [2]: > 100 µM
TGI [3]: > 100 µM
TGI [4]: > 100 µM
TGI [5]: > 100 µM
TGI [6]: > 100 µM
TGI [7]: > 100 µM
TGI [8]: > 100 µM
TGI [9]: > 100 µM
TGI [10]: > 100 µM
TGI [11]: > 100 µM
TGI [12]: > 100 µM
TGI [13]: > 100 µM
TGI [14]: > 100 µM
TGI [15]: 70.5 µM
TGI [16]: > 100 µM
TGI [17]: 80.3 µM
TGI [18]: > 100 µM
TGI [19]: > 100 µM
TGI [20]: > 100 µM
TGI [21]: > 100 µM
TGI [22]: > 100 µM
TGI [23]: > 100 µM
TGI [24]: > 100 µM
TGI [25]: > 100 µM
TGI [26]: > 100 µM
TGI [27]: > 100 µM
TGI [28]: > 100 µM
TGI [29]: > 100 µM
TGI [30]: > 100 µM
TGI [31]: > 100 µM
TGI [32]: > 100 µM
TGI [33]: > 100 µM
TGI [34]: > 100 µM
TGI [35]: > 100 µM
TGI [36]: > 100 µM
TGI [37]: > 100 µM
TGI [38]: > 100 µM
TGI [39]: > 100 µM
TGI [40]: 96.5 µM
TGI [41]: > 100 µM
TGI [42]: > 100 µM
TGI [43]: > 100 µM
TGI [44]: > 100 µM
TGI [45]: > 100 µM
TGI [46]: > 100 µM
TGI [47]: > 100 µM
TGI [48]: > 100 µM
TGI [49]: > 100 µM
TGI [50]: > 100 µM
TGI [51]: > 100 µM
TGI [52]: > 100 µM
TGI [53]: > 100 µM
TGI [54]: > 100 µM
TGI [55]: > 100 µM

c1ccc2c3c([nH]c2c1)[C@H]1C2CCCCN2CN1CC3 (stereo not given in full)
TGI [1]: > 100 µM
TGI [2]: > 100 µM
TGI [56]: > 100 µM
TGI [3]: > 100 µM
TGI [4]: > 100 µM
TGI [6]: > 100 µM
TGI [7]: > 100 µM
TGI [8]: > 100 µM
TGI [9]: > 100 µM
TGI [10]: > 100 µM
TGI [11]: > 100 µM
TGI [12]: > 100 µM
TGI [13]: > 100 µM
TGI [14]: > 100 µM
TGI [16]: > 100 µM
TGI [17]: > 100 µM
TGI [57]: > 100 µM
TGI [18]: > 100 µM
TGI [19]: > 100 µM
TGI [20]: > 100 µM
TGI [21]: > 100 µM
TGI [22]: > 100 µM
TGI [23]: > 100 µM
TGI [24]: > 100 µM
TGI [58]: > 100 µM
TGI [25]: > 100 µM
TGI [26]: > 100 µM
TGI [27]: > 100 µM
TGI [28]: > 100 µM
TGI [29]: > 100 µM
TGI [30]: > 100 µM
TGI [31]: > 100 µM
TGI [33]: > 100 µM
TGI [34]: > 100 µM
TGI [35]: > 100 µM
TGI [36]: > 100 µM
TGI [37]: > 100 µM
TGI [38]: > 100 µM
TGI [39]: > 100 µM
TGI [40]: > 100 µM
TGI [41]: > 100 µM
TGI [42]: > 100 µM
TGI [43]: > 100 µM
TGI [45]: > 100 µM
TGI [46]: > 100 µM
TGI [59]: > 100 µM
TGI [47]: > 100 µM
TGI [48]: > 100 µM
TGI [49]: > 100 µM
TGI [50]: > 100 µM
TGI [51]: > 100 µM
TGI [52]: > 100 µM
TGI [53]: > 100 µM
TGI [54]: > 100 µM
TGI [55]: > 100 µM
